# From ChEMBL document CHEMBL1201862, “PubChem BioAssay data set” (2004)
# Active and inactive are the calls of the source.
# Tests used:
# [1] = molecular target: Envelope glycoprotein gp160 (Human immunodeficiency virus 1, UniProt Q6QLK5); assay: inhibitors of HIV fusion peptide binding, primary screen, biochemical, uHTS, fluorescence dequenching (AID 1986)
# [2] = HEp-2 cell cytotoxicity, dose response, cytotoxicity control for RSV inhibitor project, HTS (AID 2410); format: functional; conditions: human respiratory syncytial virus
# [3] = molecular target: T1, Dual specificity protein phosphatase 3 (Homo sapiens, UniProt P51452); assay: VHR1 phosphatase inhibitors, primary screen, biochemical, absorbance, uHTS (AID 1654)
# [4] = molecular target: T1, Dual specificity protein phosphatase 3; assay: VHR1 phosphatase inhibitors, biochemical (AID 1878)
# [5] = molecular target: T2, Dual specificity protein phosphatase 6 (Rattus norvegicus, UniProt Q64346); assay: MKP-3 phosphatase inhibitors, primary screen, biochemical, rat enzyme, in vitro (AID 425)
# T2 sequence (Q64346 whole entry): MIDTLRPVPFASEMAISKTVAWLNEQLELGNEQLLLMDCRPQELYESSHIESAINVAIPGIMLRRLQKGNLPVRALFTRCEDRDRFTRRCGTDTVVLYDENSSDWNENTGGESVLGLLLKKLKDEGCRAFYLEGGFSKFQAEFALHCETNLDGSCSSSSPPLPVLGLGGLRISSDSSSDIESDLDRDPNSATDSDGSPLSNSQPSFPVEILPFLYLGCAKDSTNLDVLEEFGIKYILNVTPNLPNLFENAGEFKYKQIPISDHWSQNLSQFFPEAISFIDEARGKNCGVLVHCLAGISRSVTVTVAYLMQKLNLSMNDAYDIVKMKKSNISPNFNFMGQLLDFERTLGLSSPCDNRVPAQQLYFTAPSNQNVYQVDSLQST
# [6] = molecular target: T3, Carboxy-terminal domain RNA polymerase II polypeptide A small phosphatase 1 (Homo sapiens, UniProt Q9GZU7); assay: inhibitors of CTDSP1, concentration-response testing, biochemical assay, absorbance-based, actives from ultra-high-throughput screening (AID 540297); format: functional
# T3 sequence (Q9GZU7 whole entry): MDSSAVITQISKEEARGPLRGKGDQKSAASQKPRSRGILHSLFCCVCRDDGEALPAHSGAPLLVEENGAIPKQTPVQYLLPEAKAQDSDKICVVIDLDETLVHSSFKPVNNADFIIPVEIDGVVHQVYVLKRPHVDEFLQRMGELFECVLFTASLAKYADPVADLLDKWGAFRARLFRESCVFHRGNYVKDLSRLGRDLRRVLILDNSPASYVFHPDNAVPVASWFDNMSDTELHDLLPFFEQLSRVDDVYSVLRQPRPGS
# [7] = molecular target: T4, Tyrosine-protein phosphatase non-receptor type 11 (Homo sapiens, UniProt Q06124); assay: SHP2 phosphatase inhibition, dose response, selectivity assay for STEP inhibitor project, biochemical (AID 602367); format: functional; conditions: read-out: IC50_Mean
# T4 sequence (Q06124 whole entry): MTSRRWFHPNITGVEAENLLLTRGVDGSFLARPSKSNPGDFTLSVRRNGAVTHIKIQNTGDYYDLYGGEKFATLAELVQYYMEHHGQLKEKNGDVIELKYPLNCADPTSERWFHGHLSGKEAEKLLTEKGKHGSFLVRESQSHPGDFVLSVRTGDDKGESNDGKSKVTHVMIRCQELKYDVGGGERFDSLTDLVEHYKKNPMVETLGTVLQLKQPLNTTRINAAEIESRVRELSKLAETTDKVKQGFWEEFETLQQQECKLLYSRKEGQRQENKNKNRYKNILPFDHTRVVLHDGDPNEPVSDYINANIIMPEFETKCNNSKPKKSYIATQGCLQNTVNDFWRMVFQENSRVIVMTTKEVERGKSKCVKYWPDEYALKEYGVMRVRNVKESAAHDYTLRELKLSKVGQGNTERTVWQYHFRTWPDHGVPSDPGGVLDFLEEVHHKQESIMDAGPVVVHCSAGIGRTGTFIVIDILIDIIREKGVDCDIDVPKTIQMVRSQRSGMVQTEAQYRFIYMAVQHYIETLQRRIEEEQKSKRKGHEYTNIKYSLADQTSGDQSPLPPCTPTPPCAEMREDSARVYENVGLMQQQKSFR
# [8] = molecular target: T5, Tyrosine-protein phosphatase non-receptor type 5 (Homo sapiens, UniProt P54829); assay: STEP phosphatase inhibitors, confirmation, biochemical, fluorescence intensity, uHTS hits (AID 602372); format: functional; conditions: read-out: IC50_Mean
# T5 sequence (P54829 whole entry): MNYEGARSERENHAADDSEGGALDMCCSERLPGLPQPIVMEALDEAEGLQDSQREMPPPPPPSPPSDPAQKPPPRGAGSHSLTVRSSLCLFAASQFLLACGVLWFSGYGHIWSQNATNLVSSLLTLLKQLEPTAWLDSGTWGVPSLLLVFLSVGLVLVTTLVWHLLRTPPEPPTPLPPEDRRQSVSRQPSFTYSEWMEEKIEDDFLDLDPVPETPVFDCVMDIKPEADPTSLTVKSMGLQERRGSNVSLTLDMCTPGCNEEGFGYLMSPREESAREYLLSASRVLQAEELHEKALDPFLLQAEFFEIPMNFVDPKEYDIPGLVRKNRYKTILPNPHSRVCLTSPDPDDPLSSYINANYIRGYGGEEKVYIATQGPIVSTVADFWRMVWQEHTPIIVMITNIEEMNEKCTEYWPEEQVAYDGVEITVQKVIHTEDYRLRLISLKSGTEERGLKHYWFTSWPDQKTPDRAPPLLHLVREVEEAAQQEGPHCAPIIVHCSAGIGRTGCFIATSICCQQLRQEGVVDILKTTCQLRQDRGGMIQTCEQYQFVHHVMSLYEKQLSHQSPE
# [9] = molecular target: T1, Dual specificity protein phosphatase 3; assay: VHR phosphatase inhibition, dose response, selectivity assay for STEP inhibitor project, biochemical (AID 602374); format: functional; conditions: read-out: IC50_Mean
# [10] = molecular target: T6, Low molecular weight phosphotyrosine protein phosphatase (Homo sapiens, UniProt P24666); format: functional; conditions: read-out: IC50_Mean
# T6 sequence (P24666 whole entry): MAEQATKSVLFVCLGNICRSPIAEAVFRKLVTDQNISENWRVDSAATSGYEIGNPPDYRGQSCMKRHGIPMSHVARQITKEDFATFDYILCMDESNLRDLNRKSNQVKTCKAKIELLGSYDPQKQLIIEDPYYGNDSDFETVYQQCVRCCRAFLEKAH
# [11] = molecular target: T7, Tyrosine-protein phosphatase non-receptor type 22 (Homo sapiens, UniProt Q9Y2R2); assay: PTPN22 phosphatase inhibition, dose response, selectivity assay for STEP inhibitor project, biochemical (AID 624241); format: functional
# T7 sequence (Q9Y2R2 whole entry): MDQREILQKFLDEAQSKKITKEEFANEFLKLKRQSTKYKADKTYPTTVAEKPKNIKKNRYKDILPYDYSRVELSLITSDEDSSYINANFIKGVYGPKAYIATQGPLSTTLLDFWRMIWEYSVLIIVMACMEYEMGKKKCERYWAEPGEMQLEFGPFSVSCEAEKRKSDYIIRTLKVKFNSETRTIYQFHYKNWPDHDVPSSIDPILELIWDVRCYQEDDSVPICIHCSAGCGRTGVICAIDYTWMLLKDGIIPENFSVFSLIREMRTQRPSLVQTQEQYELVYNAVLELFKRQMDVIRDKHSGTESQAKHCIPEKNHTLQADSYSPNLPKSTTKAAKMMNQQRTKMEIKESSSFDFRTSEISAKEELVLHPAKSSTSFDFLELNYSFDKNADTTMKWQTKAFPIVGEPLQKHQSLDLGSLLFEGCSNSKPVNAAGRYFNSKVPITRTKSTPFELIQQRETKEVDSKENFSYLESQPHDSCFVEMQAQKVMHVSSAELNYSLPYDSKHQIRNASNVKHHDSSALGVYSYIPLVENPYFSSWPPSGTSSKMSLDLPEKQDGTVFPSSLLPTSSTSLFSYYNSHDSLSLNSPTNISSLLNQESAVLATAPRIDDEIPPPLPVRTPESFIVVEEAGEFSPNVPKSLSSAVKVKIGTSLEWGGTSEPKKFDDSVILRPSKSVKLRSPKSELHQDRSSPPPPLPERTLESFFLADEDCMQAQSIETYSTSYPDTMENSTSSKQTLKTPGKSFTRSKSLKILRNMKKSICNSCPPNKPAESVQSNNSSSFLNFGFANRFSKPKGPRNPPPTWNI
# [12] = molecular target: T6, Low molecular weight phosphotyrosine protein phosphatase; format: functional; conditions: read-out: IC50_Mean; remark: listed apart in the source
# [13] = molecular target: T7, Tyrosine-protein phosphatase non-receptor type 22; assay: LYP phosphatase inhibition for selectivity, dose response, selectivity assay for LMPTP inhibitor project, biochemical, fluorescence, LYP catalytic domain (AID 652006); format: functional; conditions: read-out: IC50_Mean
# [14] = molecular target: T8, Heat shock factor protein 1 (Mus musculus, UniProt P38532); assay: inhibition of MG132-induced HSE-luciferase signal, confirmation, cell-based, NIH3T3, luminescence, dose retest (AID 2382); format: functional;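 note: NIH3T3 fibroblasts with HSF1-driven luciferase reporter stressed by proteasome inhibitor MG132; luminescence from HSF1-driven luciferase expression after 8 hours of MG132 stress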
# T8 sequence (P38532 whole entry): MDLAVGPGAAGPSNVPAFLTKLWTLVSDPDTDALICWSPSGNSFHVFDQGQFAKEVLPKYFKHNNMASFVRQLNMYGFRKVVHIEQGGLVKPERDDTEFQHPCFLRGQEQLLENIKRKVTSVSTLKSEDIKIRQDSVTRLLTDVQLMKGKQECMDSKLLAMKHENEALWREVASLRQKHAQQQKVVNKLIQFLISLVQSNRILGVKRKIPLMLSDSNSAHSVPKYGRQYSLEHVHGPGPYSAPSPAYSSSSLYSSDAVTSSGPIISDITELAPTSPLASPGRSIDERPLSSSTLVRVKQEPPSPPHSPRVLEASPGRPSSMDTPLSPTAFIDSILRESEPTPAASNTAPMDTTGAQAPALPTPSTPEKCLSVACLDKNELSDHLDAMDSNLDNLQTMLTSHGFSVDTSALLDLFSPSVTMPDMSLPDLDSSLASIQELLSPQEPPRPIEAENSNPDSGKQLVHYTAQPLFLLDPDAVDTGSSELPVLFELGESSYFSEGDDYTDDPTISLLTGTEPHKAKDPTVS
# [15] = molecular target: Eukaryotic translation initiation factor 4H (Homo sapiens, UniProt Q15056); assay: eIF4H inhibition in translation initiation, SAR follow-up (AID 435011); format: functional
# [16] = molecular target: Polyadenylate-binding protein 1 (Homo sapiens, UniProt P11940); assay: PABP inhibition in translation initiation, SAR follow-up (AID 435018); format: functional
# [17] = molecular target: T9, Mannose-6-phosphate isomerase (Homo sapiens, UniProt P34949); assay: inhibitors of human PMI, primary screen, biochemical, fluorescence intensity, coupled assay (AID 1209)
# T9 sequence (P34949 whole entry): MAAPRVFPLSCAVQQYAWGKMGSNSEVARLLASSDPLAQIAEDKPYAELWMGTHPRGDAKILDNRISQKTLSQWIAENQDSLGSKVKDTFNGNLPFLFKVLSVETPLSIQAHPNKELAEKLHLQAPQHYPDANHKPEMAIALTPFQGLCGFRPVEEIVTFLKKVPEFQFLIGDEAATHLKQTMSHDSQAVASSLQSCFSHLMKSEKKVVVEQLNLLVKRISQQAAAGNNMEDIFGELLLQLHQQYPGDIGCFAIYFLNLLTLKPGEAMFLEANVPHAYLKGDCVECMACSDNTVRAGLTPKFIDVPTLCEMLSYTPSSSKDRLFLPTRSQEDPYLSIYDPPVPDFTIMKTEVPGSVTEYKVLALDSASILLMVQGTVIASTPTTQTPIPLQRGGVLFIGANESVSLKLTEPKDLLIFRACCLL
# [18] = molecular target: T9, Mannose-6-phosphate isomerase; assay: PMI enzyme inhibitors, confirmation, biochemical, fluorescence intensity (AID 1535)
# Phosphomannomutase 2 = Phosphomannomutase 2 (Homo sapiens, UniProt O15305); assay: Counter screen SAR assay for PMM2 inhibitors via a fluorescence intensity assay. [Related pubchem assays (depositor defined):AID1545, AID1574]
# Chain of Phosphomannomutase 2 (O15305 whole entry): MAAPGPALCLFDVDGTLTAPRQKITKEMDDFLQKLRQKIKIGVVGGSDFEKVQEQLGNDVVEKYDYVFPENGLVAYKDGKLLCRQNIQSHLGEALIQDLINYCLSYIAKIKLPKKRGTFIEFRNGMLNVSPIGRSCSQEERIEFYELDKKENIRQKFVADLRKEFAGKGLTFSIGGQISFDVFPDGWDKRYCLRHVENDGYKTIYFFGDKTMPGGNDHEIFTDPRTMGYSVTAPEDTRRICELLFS
# T1 sequence (P51452 whole entry): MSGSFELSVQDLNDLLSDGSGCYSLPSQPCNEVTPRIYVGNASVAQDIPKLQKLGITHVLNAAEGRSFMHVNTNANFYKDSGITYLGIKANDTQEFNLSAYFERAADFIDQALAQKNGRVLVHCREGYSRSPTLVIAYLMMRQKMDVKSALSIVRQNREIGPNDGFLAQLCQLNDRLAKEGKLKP
# Chain of Polyadenylate-binding protein 1 (P11940 whole entry): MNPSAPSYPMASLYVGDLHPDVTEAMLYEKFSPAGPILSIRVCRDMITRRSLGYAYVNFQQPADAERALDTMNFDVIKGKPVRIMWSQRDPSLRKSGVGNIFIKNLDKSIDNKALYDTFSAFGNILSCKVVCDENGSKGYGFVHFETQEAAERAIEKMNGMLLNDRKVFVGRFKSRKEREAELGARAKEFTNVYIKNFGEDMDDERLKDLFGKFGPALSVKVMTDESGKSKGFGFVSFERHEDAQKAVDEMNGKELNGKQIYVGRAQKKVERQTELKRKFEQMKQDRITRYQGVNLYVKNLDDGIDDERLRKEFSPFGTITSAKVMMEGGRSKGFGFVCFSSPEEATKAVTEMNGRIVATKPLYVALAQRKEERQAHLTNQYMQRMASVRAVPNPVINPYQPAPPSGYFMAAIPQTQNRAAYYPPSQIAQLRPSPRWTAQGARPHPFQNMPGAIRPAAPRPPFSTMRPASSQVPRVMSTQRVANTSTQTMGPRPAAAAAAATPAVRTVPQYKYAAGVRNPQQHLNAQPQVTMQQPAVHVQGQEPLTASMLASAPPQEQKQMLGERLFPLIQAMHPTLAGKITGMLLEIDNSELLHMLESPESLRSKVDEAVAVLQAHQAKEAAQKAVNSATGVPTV
# Chain of Envelope glycoprotein gp160 (Q6QLK5 whole entry, the tested form may be a part): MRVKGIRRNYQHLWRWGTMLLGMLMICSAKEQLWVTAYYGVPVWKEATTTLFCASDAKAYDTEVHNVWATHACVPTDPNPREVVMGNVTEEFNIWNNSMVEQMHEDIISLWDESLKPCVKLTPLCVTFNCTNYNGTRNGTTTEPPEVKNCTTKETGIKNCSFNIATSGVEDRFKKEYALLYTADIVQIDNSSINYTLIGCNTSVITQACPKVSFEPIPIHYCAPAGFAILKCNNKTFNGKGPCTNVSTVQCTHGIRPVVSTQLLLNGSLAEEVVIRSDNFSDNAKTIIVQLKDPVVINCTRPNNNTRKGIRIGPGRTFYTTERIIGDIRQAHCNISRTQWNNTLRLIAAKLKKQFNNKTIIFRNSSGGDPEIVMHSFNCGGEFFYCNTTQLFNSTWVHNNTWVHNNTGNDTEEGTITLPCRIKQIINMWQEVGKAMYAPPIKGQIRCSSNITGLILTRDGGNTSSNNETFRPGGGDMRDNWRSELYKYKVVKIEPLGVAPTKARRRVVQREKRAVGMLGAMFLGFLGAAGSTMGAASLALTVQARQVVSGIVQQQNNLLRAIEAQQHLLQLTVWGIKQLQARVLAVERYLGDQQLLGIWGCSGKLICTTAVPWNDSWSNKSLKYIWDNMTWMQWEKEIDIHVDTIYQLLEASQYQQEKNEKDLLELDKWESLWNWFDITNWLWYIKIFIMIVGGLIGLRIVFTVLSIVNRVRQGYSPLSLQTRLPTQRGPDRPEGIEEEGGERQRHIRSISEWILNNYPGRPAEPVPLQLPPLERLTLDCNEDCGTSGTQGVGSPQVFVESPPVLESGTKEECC
compound,measurement,setting,value
CCOc1cc(/C=N/NC2=NC(=O)C(CC(=O)O)S2)ccc1OCc1ccc(Cl)cc1Cl (stereo not given),IC50,[1],13.6 µM (active)
same,CC50,[2],20.8 µM (active)
same,IC50,[3],8.44 µM (active)
same,IC50,[4],5.27 µM (active)
same,IC50,[5],25.6 µM (active)
same,IC50,[6],2.32 µM (active)
same,IC50,[7],2.2 µM (active)
same,IC50,[8],4.09 µM (active)
same,IC50,[9],2.42 µM (active)
same,IC50,[10],12.1 µM (active)
same,IC50,[11],7.26 µM (active)
same,IC50,[12],8.68 µM (active)
same,IC50,[13],22.9 µM (inactive)
same,IC50,cells,34.6 µM (active)
COc1ccc(CCNC(=O)CSc2ccc(-c3ccco3)nn2)cc1,EC50,[14],> 195 µM (not active)
same,IC50,[15],70.3 µM (active)
same,IC50,[16],> 100 µM (inactive)
CCc1ccc(NC2Nc3cc(C)nn3S2)cc1 (stereo not given),IC50,[17],8.43 µM (active)
same,IC50,[18],> 50 µM (inactive)
same,IC50,Phosphomannomutase 2,> 100 µM (inactive)
